Measurements reported in PubChem BioAssay AID256 (DTP/NCI, 2004).
Where “and” joins values, the source holds several entries; their conditions need not be identical. Identical values can stand only once. Inconclusive results and toxic doses are left out.

Tested on: CD2F1 mice, L1210 leukemia ip, survival T/C
Assay: NCI In Vivo Anticancer Drug Screen. Data for tumor model L1210 Leukemia (intraperitoneal) in CD2F1 (CDF1) mice
Conditions: higher = longer survival
Procedure, shortened: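 Activity against a transplanted murine tumor was judged by comparing the compound group with a vehicle group. The outcome in the treated animals was divided by that in the controls.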

[1] = endpoint: mean survival time, dose: 100.0 mg/kg/injection, schedule: Q01DX009 (ip), vehicle: saline
[2] = endpoint: mean survival time, dose: 200.0 mg/kg/injection, schedule: Q01DX009 (ip), vehicle: saline
[3] = endpoint: mean survival time, dose: 50.0 mg/kg/injection, schedule: Q01DX009 (ip), vehicle: saline

## NCCCNCCCCNC(=O)C(O)NC(=O)CC(O)CCCCN=C(N)N (configuration not stated)
endpoint: median survival time, dose: 1.56 mg/kg/injection, schedule: Q01DX009 (ip), vehicle: saline
  T/C: 161 % of control and 181 % of control
endpoint: median survival time, dose: 3.0 mg/kg/injection, schedule: Q01DX009 (ip), vehicle: saline
  T/C: 162 % of control
endpoint: median survival time, dose: 3.12 mg/kg/injection, schedule: Q01DX009 (ip), vehicle: saline
  T/C: 164 % of control and 168 % of control and 210 % of control
endpoint: median survival time, dose: 6.0 mg/kg/injection, schedule: Q01DX009 (ip), vehicle: saline
  T/C: 207 % of control
endpoint: median survival time, dose: 6.25 mg/kg/injection, schedule: Q01DX009 (ip), vehicle: saline
  T/C: 164 % of control and 191 % of control and 219 % of control
endpoint: median survival time, dose: 12.0 mg/kg/injection, schedule: Q01DX009 (ip), vehicle: saline
  T/C: 219 % of control
endpoint: median survival time, dose: 12.5 mg/kg/injection, schedule: Q01DX009 (ip), vehicle: saline
  T/C: 173 % of control and 196 % of control and 217 % of control
endpoint: median survival time, dose: 100.0 mg/kg/injection, schedule: Q01DX009 (ip), vehicle: saline
  T/C: 206 % of control and 235 % of control

## NNC(=O)CCCO
[1]
  T/C: 102 % of control
[2]
  T/C: 101 % of control
endpoint: mean survival time, dose: 400.0 mg/kg/injection, schedule: Q01DX009 (ip), vehicle: saline
  T/C: 102 % of control

## C/C=C(\NC1CCCCC1)C(=O)c1ccccc1
endpoint: mean survival time, dose: 100.0 mg/kg/injection, schedule: Q01DX009 (ip), vehicle: Klucel (hydroxypropylcellulose) (HPC)
  T/C: 100 % of control
endpoint: mean survival time, dose: 100.0 mg/kg/injection, schedule: Q04DX003 (ip), vehicle: Klucel (hydroxypropylcellulose) (HPC)
  T/C: 101 % of control
endpoint: mean survival time, dose: 200.0 mg/kg/injection, schedule: Q01DX009 (ip), vehicle: Klucel (hydroxypropylcellulose) (HPC)
  T/C: 109 % of control
endpoint: mean survival time, dose: 200.0 mg/kg/injection, schedule: Q04DX003 (ip), vehicle: Klucel (hydroxypropylcellulose) (HPC)
  T/C: 100 % of control
endpoint: mean survival time, dose: 400.0 mg/kg/injection, schedule: Q04DX003 (ip), vehicle: Klucel (hydroxypropylcellulose) (HPC)
  T/C: 97 % of control

## COc1cc2c(cc1OC)CCN=C2
[3]
  T/C: 106 % of control
[1]
  T/C: 92 % of control

## NC(=S)N/N=C/c1ccc(OC(=O)COc2ccccc2)cn1
endpoint: mean survival time, dose: 88.0 mg/kg/injection, schedule: Q04DX003 (ip), vehicle: saline with Tween-80
  T/C: 123 % of control
endpoint: mean survival time, dose: 100.0 mg/kg/injection, schedule: Q04DX002 (ip), vehicle: saline with Tween-80
  T/C: 118 % of control
endpoint: mean survival time, dose: 200.0 mg/kg/injection, schedule: Q04DX002 (ip), vehicle: saline with Tween-80
  T/C: 122 % of control
endpoint: mean survival time, dose: 200.0 mg/kg/injection, schedule: Q04DX003 (ip), vehicle: saline with Tween-80
  T/C: 118 % of control
endpoint: mean survival time, dose: 400.0 mg/kg/injection, schedule: Q04DX002 (ip), vehicle: saline with Tween-80
  T/C: 152 % of control and 155 % of control
endpoint: mean survival time, dose: 800.0 mg/kg/injection, schedule: Q04DX002 (ip), vehicle: saline with Tween-80
  T/C: 174 % of control

## CCN(CC(C)Cl)c1ccc(NC(=O)c2cc(N3CC3)c([N+](=O)[O-])cc2[N+](=O)[O-])cc1 (configuration not stated)
endpoint: mean survival time, dose: 22.0 mg/kg/injection, schedule: Q01DX001 (ip), vehicle: Klucel (hydroxypropylcellulose) (HPC)
  T/C: 97 % of control
endpoint: mean survival time, dose: 44.0 mg/kg/injection, schedule: Q01DX001 (ip), vehicle: Klucel (hydroxypropylcellulose) (HPC)
  T/C: 97 % of control
endpoint: mean survival time, dose: 88.0 mg/kg/injection, schedule: Q01DX001 (ip), vehicle: Klucel (hydroxypropylcellulose) (HPC)
  T/C: 103 % of control

## CC(=O)O.CC(=O)O.CC(=O)O.[O]=[U]=[O]
endpoint: mean survival time, dose: 12.5 mg/kg/injection, schedule: Q01DX009 (ip), vehicle: saline
  T/C: 98 % of control
endpoint: mean survival time, dose: 25.0 mg/kg/injection, schedule: Q01DX009 (ip), vehicle: saline
  T/C: 98 % of control
[3]
  T/C: 90 % of control

## CCCC(O)C[N+](=O)[O-] (configuration not stated)
[1]
  T/C: 104 % of control
[2]
  T/C: 111 % of control

## COc1ccc(C(=O)c2ncccc2C)cc1OC
endpoint: mean survival time, dose: 12.5 mg/kg/injection, schedule: Q01DX009 (ip), vehicle: water
  T/C: 94 % of control
endpoint: mean survival time, dose: 25.0 mg/kg/injection, schedule: Q01DX009 (ip), vehicle: water
  T/C: 95 % of control
endpoint: mean survival time, dose: 50.0 mg/kg/injection, schedule: Q01DX009 (ip), vehicle: water
  T/C: 94 % of control
endpoint: mean survival time, dose: 100.0 mg/kg/injection, schedule: Q01DX009 (ip), vehicle: water
  T/C: 94 % of control
endpoint: mean survival time, dose: 200.0 mg/kg/injection, schedule: Q01DX009 (ip), vehicle: water
  T/C: 88 % of control

## C=CCN(C)N=Nc1ccc(C(N)=O)cc1
endpoint: mean survival time, dose: 18.75 mg/kg/injection, schedule: Q01DX009 (ip), vehicle: Klucel (hydroxypropylcellulose) (HPC)
  T/C: 106 % of control
endpoint: mean survival time, dose: 37.5 mg/kg/injection, schedule: Q01DX009 (ip), vehicle: Klucel (hydroxypropylcellulose) (HPC)
  T/C: 115 % of control
endpoint: mean survival time, dose: 150.0 mg/kg/injection, schedule: Q01DX009 (ip), vehicle: Klucel (hydroxypropylcellulose) (HPC)
  T/C: 156 % of control
endpoint: mean survival time, dose: 300.0 mg/kg/injection, schedule: Q01DX009 (ip), vehicle: Klucel (hydroxypropylcellulose) (HPC)
  T/C: 92 % of control

## CCC(=O)c1cc(O)ccc1O
endpoint: mean survival time, dose: 50.0 mg/kg/injection, schedule: Q01DX009 (ip), vehicle: other
  T/C: 109 % of control
endpoint: mean survival time, dose: 100.0 mg/kg/injection, schedule: Q01DX001 (ip), vehicle: saline
  T/C: 101 % of control
endpoint: mean survival time, dose: 100.0 mg/kg/injection, schedule: Q01DX009 (ip), vehicle: other
  T/C: 109 % of control
endpoint: mean survival time, dose: 200.0 mg/kg/injection, schedule: Q01DX001 (ip), vehicle: saline
  T/C: 101 % of control
endpoint: mean survival time, dose: 200.0 mg/kg/injection, schedule: Q01DX009 (ip), vehicle: other
  T/C: 108 % of control
endpoint: mean survival time, dose: 400.0 mg/kg/injection, schedule: Q01DX001 (ip), vehicle: saline
  T/C: 102 % of control
